# Target: T1, NAD(+) hydrolase SARM1 (Homo sapiens, UniProt Q6SZW1)
# T1 sequence (Q6SZW1 whole entry): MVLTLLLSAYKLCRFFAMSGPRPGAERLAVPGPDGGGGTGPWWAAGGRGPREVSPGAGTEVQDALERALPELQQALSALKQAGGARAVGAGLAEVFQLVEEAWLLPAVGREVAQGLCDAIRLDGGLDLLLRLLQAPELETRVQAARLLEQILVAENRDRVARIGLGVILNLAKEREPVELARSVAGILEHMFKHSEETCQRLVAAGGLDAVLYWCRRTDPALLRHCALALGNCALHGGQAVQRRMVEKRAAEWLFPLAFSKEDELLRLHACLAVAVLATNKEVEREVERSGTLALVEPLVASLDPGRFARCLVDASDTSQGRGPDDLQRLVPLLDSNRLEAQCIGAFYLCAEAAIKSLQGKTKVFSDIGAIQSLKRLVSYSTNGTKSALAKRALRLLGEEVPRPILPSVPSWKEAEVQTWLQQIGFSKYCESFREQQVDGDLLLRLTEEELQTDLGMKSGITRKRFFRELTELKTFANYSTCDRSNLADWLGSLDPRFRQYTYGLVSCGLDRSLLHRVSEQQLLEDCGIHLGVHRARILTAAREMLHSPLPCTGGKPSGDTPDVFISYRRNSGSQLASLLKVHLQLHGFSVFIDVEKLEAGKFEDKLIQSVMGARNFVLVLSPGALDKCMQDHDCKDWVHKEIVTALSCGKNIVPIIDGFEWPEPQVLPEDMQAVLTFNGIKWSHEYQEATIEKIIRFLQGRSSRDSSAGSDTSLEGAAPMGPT
# Test: ARM-SAM-TIR IC50 Assay
# Experimental: The enzymatic assay was performed in a 384-well polypropylene plate in Dulbecco's PBS buffer in a final assay volume of 20 μL. ARM-SAM-TIR lysate with a final concentration of 5 μg/mL was pre-incubated with the respective compound at 1% DMSO final assay concentration over 2 h at room temperature. The reaction was initiated by addition of 5 μM final assay concentration of NAD+ as substrate. After a 2 hr room temperature incubation, the reaction was terminated with 40 μL of stop solution of 7.5% trichloroactetic acid in acetonitrile. The NAD+ and ADPR concentrations were analyzed by a RapidFire High Throughput Mass Spectrometry System (Agilent Technologies, Santa Clara, Calif.) using an API4000 triple quadrupole mass spectrometer (AB Sciex Framingham, Mass.).
smiles,measurement,value
"Cc1c(-c2ccncc2)n[nH]c1NC(=O)COc1ccc(Cl)c(F)c1 [US12331033, Example 291]",IC50,< 5 µM

# — BindingDB's records for patent US12331033 (Disarm Therapeutics, 2025)
